Converted amounts (≈) assume the structure as drawn. Structures can show the parent of a compound that is named as a salt.
How the values were obtained:
B16 melanoma cells = assay: in vitro inhibitory activity on tumor cell growth, B16 melanoma cells (Test Example 2); type: cell-based; details: B16 mouse melanoma cells, 37° C., 3 days, 5% CO2, concentration for 50% growth inhibitory effect
Experimental: The anticancer activity of each compound will be described. […] This test was carried out by measuring an in vitro inhibitory activity on tumor cell growth. That is to say, the B16 melanoma cells of a mouse were planted on a culture plate having 96 cells, and a compound was then added after one day and the cells were cultured at 37° C. for 3 days in 5% CO2. Next, a compound concentration (IC50) necessary to accomplish a 50% growth inhibitory effect was determined in accordance with a procedure described in Cancer. Res., Vol. 48, p. 589-601 (1988). The unit of the drug concentration was μg/ml. The result of distamycin is also simultaneously shown as a comparative example.

[1] = tested on: mouse colon cancer cells of Colon 26; assay: Anti-tumor test in mice implanted with Colon 26 cells, tumor weight on 15th day (Test Example 3); type: in vivo; details: tail vein on 1st day, Colon 26 s.c. in female CDF1 mouse, tumor weight on 15th day vs control 100%
Experimental: A cell floating solution having 1×10^7 mouse colon cancer cells of Colon 26 per ml of HBSS (Hanks' Balanced Salt Solution) was prepared. Next, 0.1 ml of this cell floating solution was implanted in the side abdomen hypodermis of a female CDFl mouse (0 day). On the day after the tumor implantation (1st day), the weight of the mouse was measured, and a solution of a compound (a 5% glucose solution containing 5% Tween 80) was administered into the tail vein of the mouse. On the 15th day, the tumor was extracted, and its weight was then measured.
An average tumor weight ratio of each experimental sample was calculated as a T/C value on the assumption that the average tumor weight ratio of a control to which any compound was not administered was 100%.
The T/C values correspond to compound numbers, respectively, and each value in the parentheses represents the concentration of the drug at the time when its T/C value was obtained.

poly d(A-T)-d(A-T) = assay: Linkage to DNA, Tm value comparison with and without compound (Test Example 1); type: binding; details: poly d(A-T)-d(A-T) in buffer; difference from Tm of the DNA alone
Experimental: Investigation was made on the linkage of each compound to DNA. The test was carried out by comparing a Tm value in the case that the compound was added to the DNA solution with a Tm value in the case that no compound was added thereto.
That is to say, poly d(A-T)-d(A-T) was used as the DNA. This DNA was dissolved in a buffer solution and the compound was further added thereto, and the Tm value was then measured. On the other hand, the Tm of the DNA alone was measured, and a difference (ΔTm) was then calculated. For the measurement, a U-3200 model spectrophotometer made by Hitachi, Ltd. was used, and for the control of temperature, SPR-10 model made by Hitachi, Ltd. was used.

Structure (SMILES) | IC50 (anti-tumor activity) (B16 melanoma cells) [µg/mL] | also measured
Cc1cc(NC(=O)c2ccc3[nH]c(-c4cccc(NC(=O)Cc5cccnc5)c4)nc3c2)ccc1N(CCCl)CCCl [Compound 2063, 1H-2-[3-(3-pyridylacetylamino)phenyl]benzimidazole-5-[N-[3-methyl-4-[N,N-bis(2-chloroethyl)amino]phenyl]]carboxyamide] | 3.48 (≈ 5.79 µM) | 
Cc1cc(NC(=O)c2ccc3[nH]c(-c4cccc(NC(=O)CNC(=N)N)c4)nc3c2)ccc1N(CCCl)CCCl [Compound 2004, 1H-2-[3-(guanidinoacetylamino)phenyl]benzimidazole-5-[N-[3-methyl-4-[N,N-bis(2-chloroethyl)amino]phenyl]]carboxyamide dihydrochloride] | 0.53 | 
N=C(N)NCC(=O)Nc1ccc(-c2nc3cc(C(=O)Nc4ccc(N(CCCl)CCCl)cc4)ccc3[nH]2)cc1 [Compound 1001, 1H-2-[4-(guanidinoacetylamino)phenyl]benzimidazole-5-[N-[4-[N,N-bis(2-chloroethyl)amino)phenyl]]carboxyamide dihydrochloride] | 0.36 | 
N=C(N)NCC(=O)Nc1cccc(-c2nc3cc(C(=O)Nc4ccc(N(CCCl)CCCl)cc4)ccc3[nH]2)c1 [Compound 2001, 1H-2-[3-(guanidinoacetylamino)phenyl]benzimidazole-5-[N-[4-[N,N-bis(2-chloroethyl)amino)phenyl]]carboxyamide dihydrochloride] | 0.82 | T/C ([1]; 30 mg/kg): 13%; ΔTm (poly d(A-T)-d(A-T)): 14 °C
Cn1cc(NC(=O)c2cc(NC(=O)c3cc(NC=O)cn3C)cn2C)cc1C(=O)NCCC(=N)N [Distamycin, distamycin, reference compound] |  | IC50 (B16 melanoma cells; 72 h, read-out: IC50 (anti-tumor activity)): 36 µg/mL (≈ 74.8 µM)
N=C(N)NCC(=O)Nc1cccc(-c2nc3cc(C(=O)Nc4ccc(N(CCCl)CCCl)c(Cl)c4)ccc3[nH]2)c1 [Compound 2006, 1H-2-[3-(guanidinoacetylamino)phenyl]benzimidazole-5-[N-[3-chloro-4-[N,N-bis(2-chloroethyl)amino]phenyl]]carboxyamide dihydrochloride] | 0.65 | T/C ([1]; 10 mg/kg): 21%
CN(C)CCCNC(=O)c1ccc2[nH]c(-c3ccc(NC(=O)CCCc4ccc(N(CCCl)CCCl)cc4)cc3)nc2c1 [Compound 29, 1H-2-[4-[[4-[4-[N,N-bis(2-chloroethyl)amino]phenyl]butyryl]amino]phenyl]benzimidazole-5-[N-[3-(dimethylamino)propyl]]carboxyamide] | 3.05 (≈ 4.89 µM) | 
CN(C)CCCC(=O)Nc1cccc(-c2nc3cc(C(=O)Nc4ccc(N(CCCl)CCCl)cc4)ccc3[nH]2)c1 [Compound 2031, 1H-2-[3-[[4-(dimethylamino)butyryl]amino]phenyl]benzimidazole-5-[N-[4-[N,N-bis(2-chloroethyl)amino)phenyl]]carboxyamide dihydrochloride] | 1.56 | 
Cc1cc(NC(=O)c2ccc3[nH]c(-c4cccc(NC(=O)CCN5CCOCC5)c4)nc3c2)ccc1N(CCCl)CCCl [Compound 2053, 1H-2-[3-[(3-morpholinopropionyl)amino]phenyl]benzimidazole-5-[N-[4-[N,N-bis(2-chloroethyl)]amino-3-methyl]phenyl]carboxyamide hydrochloride] | 0.33 | 
Cc1cc(NC(=O)c2ccc3[nH]c(-c4cccc(NC(=O)CC[S+](C)C)c4)nc3c2)ccc1N(CCCl)CCCl.[I-] [Compound 2044, 2-[N-[3-[5-[N-[3-methyl-4-[N,N-bis(2-chloroethyl)amino]phenyl]carbamoyl]-1Hbenzimidazole-2-yl]phenyl]]carbamoylethyl-dimethylsulfonium iodide] | 0.72 | 
N=C(N)NCCCC(=O)Nc1cccc(-c2nc3cc(C(=O)Nc4ccc(N(CCCl)CCCl)cc4)ccc3[nH]2)c1 [Compound 2011, 1H-2-[3-[4-(guanidino)butyryl]amino]phenyl]benzimidazole-5-[N-[4-[N,N-bis(2-chloroethyl)amino)phenyl]]carboxyamide dihydrochloride] | 0.97 | 
N=C(N)CCNC(=O)c1ccc2[nH]c(-c3cccc(NC(=O)CCCc4ccc(N(CCCl)CCCl)cc4)c3)nc2c1 [Compound 47, 1H-2-[3-[[4-[4-[N,N-bis(2-chloroethyl)amino]phenyl]butyryl]amino]phenyl]benzimidazole-5-[N-(2-amidinoethyl]carboxyamide hydrochloride] | 0.38 | 
N=C(N)CCNC(=O)c1ccc2[nH]c(-c3ccc(NC(=O)CCCc4ccc(N(CCCl)CCCl)cc4)cc3)nc2c1 [Compound 2, 1H-2-[4-[[4-[4-[N,N-bis(2-chloroethyl)amino]phenyl]butyryl]amino]phenyl]benzimidazole-5-[N-(2-amidinoethyl]carboxyamide hydrochloride] | 0.58 | 
Cc1cc(NC(=O)c2ccc3[nH]c(-c4cccc(NC(=O)CCCNC(=N)N)c4)nc3c2)ccc1N(CCCl)CCCl [Compound 2014, 1H-2-[3-[[4-(guanidino)butyryl]amino]phenyl]benzimidazole-5-[N-[3-methyl-4-[N,N-bis(2-chloroethyl)amino]phenyl]]carboxyamide dihydrochloride] | 1.18 | 
C[S+](C)CCC(=O)Nc1cccc(-c2nc3cc(C(=O)Nc4ccc(N(CCCl)CCCl)cc4)ccc3[nH]2)c1 [Compound 2041, 2-[N-[3-[5-[N-[4-[N,N-bis(2-chloroethyl)amino]phenylnyl]carbamoyl]-1H-benzimidazole-2-yl]phenyl]]carbamoylethyl-dimethylsulfonium iodide] | 0.37 | 
N=C(N)NCCCC(=O)Nc1cccc(-c2nc3cc(C(=O)Nc4ccc(N(CCCl)CCCl)c(Cl)c4)ccc3[nH]2)c1 [Compound 2016, 1H-2-[3-[[4-(guanidino)butyryl]amino]phenyl]benzimidazole-5-[N-[3-chloro-4-[N,N-bis(2-chloroethyl)amino]phenyl]]carboxyamide dihydrochloride] | 2.08 | 
C[S+](C)CCC(=O)Nc1cccc(-c2nc3cc(C(=O)Nc4ccc(N(CCCl)CCCl)c(Cl)c4)ccc3[nH]2)c1 [Compound 2046, 2-[N-[3-[5-[N-[3-chloro-4-[N,N-bis(2-chloroethyl)amino]phenyl]carbamoyl]-1H-benzimidazole-2-yl]phenyl]carbamoylethyl]dimethylsulfonium iodide] | 0.39 | 
O=C(CCN1CCOCC1)Nc1cccc(-c2nc3cc(C(=O)Nc4ccc(N(CCCl)CCCl)cc4)ccc3[nH]2)c1 [Compound 2051, 1H-2-[3-[(3-morpholinopropionyl)amino]phenyl]benzimidazole-5-[N-[4-[N,N-bis(2-chloroethyl)amino]phenyl]]carboxyamide hydrochloride] | 0.49 | 
O=C(CCN1CCOCC1)Nc1cccc(-c2nc3cc(C(=O)Nc4ccc(N(CCCl)CCCl)c(Cl)c4)ccc3[nH]2)c1 [Compound 2054, 1H-2-[3-[(3-morpholinopropionyl)amino]phenyl]benzimidazole-5-[N-[3-chloro-4-[N-bis(2-chloroethyl)amino]phenyl]]carboxyamide hydrochloride] | 0.41 | 
COc1cccc2c1C(=O)c1c(O)c3c(c(O)c1C2=O)C[C@@](O)(C(=O)CO)C[C@@H]3O[C@H]1C[C@H](N)[C@H](O)[C@H](C)O1 [Adriamycin, adriamycin, reference compound] |  | T/C ([1]; 20 mg/kg): 29%
N=C(N)NCC(=O)Nc1ccc(-c2nc3cc(C(=O)Nc4cccc(N(CCCl)CCCl)c4)ccc3[nH]2)cc1 [Compound 1010, 1H-2-[4-(guanidinoacetylamino)phenyl]benzimidazole-5-[N-[3-[N,N-bis(2-chloroethyl)amino]phenyl]]carboxyamide] | 3.19 (≈ 5.62 µM) | 

Source: patent publication US5821258A, “Phenylbenzimidazole derivatives” (priority 1994, dated 1998)
